Assay results: patent US12692232B2, “Indole carboxamide compound, preparation therefor and use thereof” (NANJING RUISHUNING MEDICAL TECHNOLOGY CO., LTD., priority 2021, dated 2026)

Columns and labels:
[1] = molecular target: T1, TRPC4 protein (Homo sapiens, UniProt Q9UBN4); assay: MST binding to TRPC4 protein
T1 sequence (Q9UBN4 1-977): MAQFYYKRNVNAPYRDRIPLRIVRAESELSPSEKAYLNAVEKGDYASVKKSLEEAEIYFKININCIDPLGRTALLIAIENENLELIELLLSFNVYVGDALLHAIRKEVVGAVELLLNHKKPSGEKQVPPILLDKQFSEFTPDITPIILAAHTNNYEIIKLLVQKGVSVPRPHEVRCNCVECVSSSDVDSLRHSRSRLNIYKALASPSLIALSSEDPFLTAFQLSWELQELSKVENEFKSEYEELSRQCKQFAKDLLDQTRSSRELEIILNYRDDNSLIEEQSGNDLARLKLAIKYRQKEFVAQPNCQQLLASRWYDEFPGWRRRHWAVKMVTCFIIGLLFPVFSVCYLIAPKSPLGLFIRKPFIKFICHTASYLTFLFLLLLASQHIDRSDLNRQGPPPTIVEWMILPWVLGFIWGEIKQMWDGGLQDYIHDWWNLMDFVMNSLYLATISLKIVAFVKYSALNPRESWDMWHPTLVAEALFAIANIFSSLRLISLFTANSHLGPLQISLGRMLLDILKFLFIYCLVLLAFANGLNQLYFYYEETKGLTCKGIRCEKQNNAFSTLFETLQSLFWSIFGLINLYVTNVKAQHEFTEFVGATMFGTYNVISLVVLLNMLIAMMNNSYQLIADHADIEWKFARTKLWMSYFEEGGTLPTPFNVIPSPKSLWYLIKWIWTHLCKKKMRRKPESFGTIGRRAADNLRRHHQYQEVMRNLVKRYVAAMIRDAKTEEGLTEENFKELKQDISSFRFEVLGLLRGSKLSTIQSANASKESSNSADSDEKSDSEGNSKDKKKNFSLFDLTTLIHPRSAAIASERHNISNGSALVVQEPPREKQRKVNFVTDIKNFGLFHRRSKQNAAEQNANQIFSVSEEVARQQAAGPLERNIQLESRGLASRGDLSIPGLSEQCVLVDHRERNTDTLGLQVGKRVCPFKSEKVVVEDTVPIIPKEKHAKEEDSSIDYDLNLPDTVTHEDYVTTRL
Protocol: (§1) Preparation and labelling of protein solution: TRPC6 protein dry powder (Alomone Labs, Israel) was prepared into a protein mother solution at a concentration of 10 μM using PBS-Buffer, and 35 μL of the protein stock solution was taken to the Buffer exchange A column, and centrifuged to obtain the Tris-removed protein. 34 μL Labelling Buffer was added to the Tris-removed protein according to the instructions of the Protein Fluorescent Labelling Kit (model L001). After mixing well, 3 μL of NT-647-NHS fluorescent dye was added and thus obtained mixture was incubated for 20 minutes. The protein-dye mixture was transferred to the purification B column, 300 μL of PBS-Buffer was added, and the target protein, i.e. fluorescent labelled protein TRPC6, was collected by centrifugation (with a final concentration of about 2 μM). 180 μL of target protein was mixed with 1620 μL of PBS-Buffer, and then 9 μl of Tween-20 were added thereto. […]
(§2) The binding ability of the compounds of the present invention (as exemplified by the compounds 1-1 and 2-1 obtained in Examples 1 and 3) for other TRPC proteins (e.g., TRPC1, TRPC3, TRPC4, TRPC5, and TRPC7) was determined using the microscale thermophoresis (MST) method. […]
(§3) The affinity of the compounds of the present invention with TRPC1, TRPC3, TRPC4, TRPC5 and TRPC7 proteins, respectively, was determined by the same method as in Example 5.

[2] = molecular target: T2, TRPC5 protein (Homo sapiens, UniProt Q9UL62); assay: MST binding to TRPC5 protein
T2 sequence (Q9UL62 1-973): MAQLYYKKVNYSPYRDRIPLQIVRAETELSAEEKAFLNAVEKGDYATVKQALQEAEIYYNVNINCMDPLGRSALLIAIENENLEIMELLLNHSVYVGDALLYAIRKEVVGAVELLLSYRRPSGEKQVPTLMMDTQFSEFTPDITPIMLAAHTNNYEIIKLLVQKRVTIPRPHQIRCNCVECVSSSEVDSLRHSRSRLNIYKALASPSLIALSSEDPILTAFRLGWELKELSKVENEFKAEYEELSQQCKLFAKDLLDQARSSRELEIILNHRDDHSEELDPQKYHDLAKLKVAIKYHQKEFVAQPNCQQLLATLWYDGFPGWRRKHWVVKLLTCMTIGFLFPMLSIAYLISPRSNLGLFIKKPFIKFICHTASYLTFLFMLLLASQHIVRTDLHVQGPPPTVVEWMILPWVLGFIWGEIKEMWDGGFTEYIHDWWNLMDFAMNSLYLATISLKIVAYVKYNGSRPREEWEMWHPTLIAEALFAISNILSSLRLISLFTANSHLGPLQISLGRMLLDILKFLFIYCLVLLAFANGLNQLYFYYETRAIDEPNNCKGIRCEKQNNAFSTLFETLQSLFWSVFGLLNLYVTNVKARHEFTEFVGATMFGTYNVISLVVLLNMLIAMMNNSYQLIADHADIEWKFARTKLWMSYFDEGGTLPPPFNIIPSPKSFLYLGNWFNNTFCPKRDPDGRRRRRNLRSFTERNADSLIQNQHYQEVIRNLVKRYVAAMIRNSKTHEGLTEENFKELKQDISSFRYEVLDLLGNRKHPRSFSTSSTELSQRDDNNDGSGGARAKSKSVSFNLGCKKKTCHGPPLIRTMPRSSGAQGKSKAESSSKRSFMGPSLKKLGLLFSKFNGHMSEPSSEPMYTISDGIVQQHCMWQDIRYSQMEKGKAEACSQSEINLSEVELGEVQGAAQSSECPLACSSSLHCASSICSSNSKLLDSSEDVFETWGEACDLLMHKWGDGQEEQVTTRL
Protocol: as §1, §2, §3

| SMILES | Kd for binding to TRPC4 protein [1] | Kd for binding to TRPCS protein [2] |
| --- | --- | --- |
| CC(=O)OCCCNC(=O)c1c(C=O)c2ccccc2n1C [compound 1-1, propyl 3-[(3-formyl-1-methyl-1H-indole-2-carbonyl)amino]acetate] | cannot be measured | cannot be measured |
| Cn1c(C(=O)NCCCOC(=O)c2ccccc2)c(C=O)c2ccccc21 [compound 2-1] | cannot be measured | cannot be measured |
